Laboratory results reported in patent US20130101996A1, “DETECTION METHOD AND APPARATUS OF ACTIVATED NEUTROPHILS” (SYSMEX CORPORATION, priority 2011, published 2013).

Assays:
Assay type in all cases: cell-based, human
[1] = tested on: neutrophils; experiment: Flow cytometry (FACSCalibur) of stimulated polymorphonucleocytes, 4DS-SSC scattergram; settings: PMA 0.32 nM or fMLP 50 nM, room temperature 10 min; versus non-stimulated control
Experimental: Peripheral blood is extracted from an able-bodied person by using a heparin blood collection tube for hematologic examination. A polynuclear sample of purity 90% or more is obtained by centrifugation of the obtained blood using a monopolymer separation solution (Dainippon Sumitomo Pharma Co., Ltd.) at room temperature. This operation is performed according to instructions of the manufacturer (Dainippon Sumitomo Pharma Co., Ltd.). Then, the obtained polymorphonucleocytes (2×10^5) are suspended in a 1 mL of 0.1% bovine serum albumin (phosphate buffered saline). To stain neutrophils of polymorphonucleocytes, CD16 (antihuman CD16 Fc gamma receptor III (clone: DJ130c).mouse monoclonal antibody/neutrophil specific antibody for RPE labeled flow cytometry; Dako) (final concentration: 750 μg/L) fluorescence-labeled by phycoerythrin (PE) is added to the obtained suspension for incubation at room temperature for 10 min. Next, APF (Aminophenyl Fluorescein, Sekisui Medical Co., Ltd.) (final concentration: 10 μM) as a reagent for ROS detection is added to the suspension, which is left still at room temperature for 30 min. […]

[2] = tested on: neutrophils in whole blood; experiment: Whole blood measured by automated blood cell counter XE-2100, DIFF scattergram of 4DS-SSC; settings: PMA 0.32 nM, room temperature 10 min; whole blood (EDTA-2K)
Experimental: Peripheral blood is extracted from an able-bodied person by using a blood collection tube containing EDTA-2K for hematologic examination. PMA (manufactured by Sigma-Aldrich Co., LLC.) (final concentration: 0.32 nM) is added to the obtained blood, which is left still at room temperature for 10 min. Whole blood to which PMA is not added is used as a control sample.
The prepared sample is supplied to the automated blood cell counter XE-2100 (manufactured by Sysmex Corporation) for measurement to acquire a DIFF scattergram of 4DS-SSC. The automated blood cell counter XE-2100 automatically treats the sample prepared as described above by using Stromatolyser-4DL and Stromatolyser-4DS (manufactured by Sysmex Corporation) to prepare a measurement sample.

[3] = tested on: neutrophils; experiment: Transmission electron microscope observation of stimulated neutrophils; settings: PMA or fMLP added, fixed by 2.5% glutaraldehyde
Experimental: A sample containing activated neutrophils is prepared from peripheral blood extracted from an able-bodied person in the same manner as in Example 1. Also, a sample not treated by a stimulating substance is prepared as a control sample.
The samples are fixed by 2.5% glutaraldehyde to prepare electron microscope samples according to the method described in the literature by the inventors (Mari Kono et al. (2009), ‘Morphological definition of CD71 positive reticulocytes by various staining techniques and electron microscopy compared to reticulocytes detected by an automated hematology analyzer’, Clinica Chimica Acta, Vol. 404, p105-110.). The obtained samples are analyzed by using a transmission electron microscope (Hitachi H-7500).

[4] = tested on: neutrophils; experiment: Confocal laser microscope observation of APF fluorescence (ROS production) in stimulated neutrophils; settings: PMA as stimulating substance, APF 10 μM; confocal laser microscopes
Experimental: A sample containing activated neutrophils is prepared from peripheral blood extracted from an able-bodied person in the same manner as in Example 1. However, only PMA is used as a stimulating substance of neutrophils. A sample (−APF) not treated by APF and a stimulating substance and a sample (+APF) not treated by a stimulating substance are prepared as control samples.
Each prepared sample is moved to a glass bottom dish coated with poly-L-lysine to observe neutrophils in the sample by confocal laser microscopes (IX81 (manufactured by Olympus Corporation), CSU-X1 (manufactured by Yokogawa Electric Corporation), and ImagEM (manufactured by Hamamatsu Photonics K. K.)).

Row | Compound | appearance region of neutrophils in 4DS-SSC scattergram [1] | appearance of activated neutrophils in 4DS-SSC scattergram, whole blood [2] | changes of form of neutrophils (degranulation, vacuole in cytoplasm) [3] | ROS production capability of neutrophils (APF derived fluorescence) [4]
1 | CCCCCCCCCCCCCC(=O)O[C@@H]1[C@@H](C)[C@@]2(O)[C@@H](C=C(CO)C[C@]3(O)C(=O)C(C)=C[C@@H]23)[C@@H]2C(C)(C)[C@]12OC(C)=O [PMA, Phorbol 12-myristate 13-acetate] | neutrophils appear on other regions | activated neutrophils appear between a cluster containing neutrophils and a cluster containing eosinophils | many neutrophils in which degranulation and vacuole are produced in cytoplasm are observed | enhanced
2 | N-Formyl-Met-Leu-Phe [fMLP] | neutrophils appear on other regions |  | many neutrophils in which degranulation and vacuole are produced in cytoplasm are observed | 
